Publication PMC10544575, “Inhibitory mechanism of vortioxetine on CYP450 enzymes in human and rat liver microsomes” (Frontiers in Pharmacology, 2023)
pKi: −log10 of the molar value. Entries after “also recorded” stand apart in the source; their conditions may differ. Like-named read-outs stand apart in the source and are kept apart here.

What was measured:
[1] = test system: CYP3A; assay: IC50 of vortioxetine on CYP3A (midazolam) in RLMs; type: in vitro ADME; conditions: rat, rat liver microsomes, probe midazolam
Experimental: (§1) The components of the incubation system were as follows: 0.20 mg/mL HLMs or 0.20 mg/mL RLMs, 0.1 M Tris-HCl, vortioxetine, and the probe substrates of each enzyme. In the study of Km’s (Michaelis–Menten constant) experiment, midazolam (1, 2, 5, 10, 20, 50 and 100 μM in HLMs and RLMs) corresponded to CYP3A4/3A; bupropion (10, 20, 50, 100, 200, 500, 1,000 and 2000 μM in HLMs; 1, 2, 5, 10, 20, 50, 100 and 200 μM in RLMs) corresponded to CYP2B6/2B; amodiaquine (5, 10, 20, 50, 100 and 200 μM in HLMs; 10, 20, 50, 100, 200, 500 μM in RLMs) corresponded to CYP2C8/CYP2C-1; losartan (1, 2, 5, 10, 20, 50, 100, 200 μM in HLMs; 10, 20, 50, 100, 200, 500 and 1,000 μM in RLMs) corresponded to CYP2C9/CYP2C-2; mephenytoin (20, 50, 100, 200, 500 and 1,000 μM in HLMs; 5, 10, 20, 50, 100, 200, 500 and 1,000 μM in RLMs) corresponded to CYP2C19/CYP2C-3; and dextromethorphan (1, 2, 5, 10, 20, 50 and 100 μM in HLMs and RLMs) corresponded to CYP2D6/CYP2D. […]
(§2) All experiments results were detected by UPLC-MS/MS, which equipped with a Waters Acquity UPLC system (Milford, MA, United States) and a Waters Xevo TQ-S triple quadrupole tandem mass spectrometer with an electrospray ionization source (Milford, MA, United States). […]
(§3) IC50 values and enzyme kinetic parameters were calculated by Graphpad Prism 6.0 (GraphPad software Inc., CA, United States). […] Data for each experiment were expressed as mean ± SD (n = 3).

[2] = test system: CYP2C-2; assay: IC50 of vortioxetine on CYP2C-2 (losartan) in RLMs; type: in vitro ADME; conditions: rat, rat liver microsomes, probe losartan
Experimental: as §1, §2, §3

[3] = test system: CYP2B; assay: IC50-shift experiment, CYP2B in RLMs; type: in vitro ADME; conditions: rat, rat liver microsomes, probe bupropion; for IC50 at 30 min: bupropion 20 μM
[4] = test system: CYP2D; assay: Reversible inhibition kinetics (Lineweaver-Burk), CYP2D in RLMs; type: in vitro ADME, rat
Experimental: as §1, §2, §3

[5] = target: CYP2C19 (Homo sapiens, UniProt P33261); assay: Reversible inhibition kinetics (Lineweaver-Burk), CYP2C19 in HLMs; type: in vitro ADME; design: 0.20 mg/mL HLMs; from tissue; host or cells: human liver microsomes; conditions: mephenytoin
Chain of CYP2C19 (P33261 whole entry): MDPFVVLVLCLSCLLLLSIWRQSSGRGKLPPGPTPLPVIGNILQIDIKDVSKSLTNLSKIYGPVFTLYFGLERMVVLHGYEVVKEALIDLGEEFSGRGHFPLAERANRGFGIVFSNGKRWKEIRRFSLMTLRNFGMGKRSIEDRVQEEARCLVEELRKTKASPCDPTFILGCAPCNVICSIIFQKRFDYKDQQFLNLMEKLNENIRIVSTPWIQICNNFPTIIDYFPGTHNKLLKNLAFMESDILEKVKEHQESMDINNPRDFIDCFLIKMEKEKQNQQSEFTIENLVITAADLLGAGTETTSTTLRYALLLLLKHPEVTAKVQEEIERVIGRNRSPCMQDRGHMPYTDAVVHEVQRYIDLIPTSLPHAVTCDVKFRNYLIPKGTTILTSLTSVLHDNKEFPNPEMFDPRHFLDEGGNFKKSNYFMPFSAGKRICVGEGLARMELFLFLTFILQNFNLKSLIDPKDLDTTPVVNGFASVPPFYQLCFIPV
Experimental: as §1, §2, §3

[6] = target: CYP2D6 (Homo sapiens, UniProt P10635); assay: Reversible inhibition kinetics (Lineweaver-Burk), CYP2D6 in HLMs; type: in vitro ADME; design: 0.20 mg/mL HLMs; from tissue; host or cells: human liver microsomes; conditions: dextromethorphan
Chain of CYP2D6 (P10635 whole entry): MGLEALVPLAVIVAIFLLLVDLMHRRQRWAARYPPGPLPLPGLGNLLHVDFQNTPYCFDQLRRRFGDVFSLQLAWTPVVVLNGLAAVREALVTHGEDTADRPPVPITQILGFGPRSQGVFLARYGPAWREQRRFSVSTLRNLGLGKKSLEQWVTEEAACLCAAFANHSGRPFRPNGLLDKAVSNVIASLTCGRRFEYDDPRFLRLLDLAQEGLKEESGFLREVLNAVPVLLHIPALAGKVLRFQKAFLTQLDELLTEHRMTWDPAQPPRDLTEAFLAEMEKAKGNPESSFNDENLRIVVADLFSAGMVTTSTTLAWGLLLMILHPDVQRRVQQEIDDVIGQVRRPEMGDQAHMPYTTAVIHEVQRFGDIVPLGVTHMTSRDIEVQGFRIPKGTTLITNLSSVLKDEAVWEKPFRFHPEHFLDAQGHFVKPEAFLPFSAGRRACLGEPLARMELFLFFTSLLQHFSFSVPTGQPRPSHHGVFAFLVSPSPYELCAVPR
Experimental: as §1, §2, §3

[7] = inhibitory effect (strength judged by IC50), RLMs

Compound: Cc1ccc(Sc2ccccc2N2CCNCC2)c(C)c1 [vortioxetine]
- IC50 at 30 min ([1]; RLMs 0.20 mg/mL, midazolam at Km, 37°C, 30 min, read-out: IC50): 16.4 µM
- IC50 at 30 min [1, 7]: > 10 µM
- IC50 at 30 min ([2]; RLMs 0.20 mg/mL, losartan at Km, 37°C, 30 min, read-out: IC50): 0.37 µM
- IC50 at 30 min [2, 7]: < 1 µM
- IC50 at 30 min ([3]; 30 min preincubation with 1.0 mM NADPH): 5.3 µM
- IC50 at 30 min ([3]; 30 min preincubation without NADPH): 10.1 µM
- IC50 shift at 30 min ([3]; ratio IC50 (−) NADPH to IC50 (+) NADPH, read-out: IC50 fold shift): 1.91
- Inhibition type ([4]; dextromethorphan, Lineweaver-Burk plot): uncompetitive inhibition
- Ki at 30 min ([4]; rat, rat liver microsomes, probe dextromethorphan): 101 µM
- pKi [5]: 5.66
- Inhibition type ([5]; Lineweaver-Burk plot): competitively inhibited; also recorded: competitive inhibition
- pKi [6]: 5.03
- Inhibition type ([6]; Lineweaver-Burk plot): competitively inhibited; also recorded: competitive inhibition
